Source: US20240166660A1, “KRAS G12C INHIBITORS” (BeiGene Switzerland GmbH, priority 2021, published 2024)

Target: KRAS (aa 1-169) G12C, C51S, C80L, C118S (Homo sapiens (Human), UniProt P01116, C118S/C51S/C80L/G12C)
Assay: Biochemical functional assay: SOS1-mediated nucleotide exchange of GDP-loaded KRAS G12C, binding to GST-cRaf RBD, FRET readout
Conditions: 3 hrs pre-incubation with compound at 24° C., SOS1, GTPyS, inhibition of nucleotide exchange
Procedure: Biochemical Functional Assay
The KRAS (aa 1-169) G12C, C51S, C80L, C118S with a His-tag was expressed, purified and loaded with GDP in house. All protein and substrate solutions were prepared in assay buffer containing 25 mM HEPES pH7.5, 10 mM MgCl2, and 0.01% Triton X-100. Purified GDP-loaded KRAS (aa 1-169) G12C, C51S, C80L, C118S protein was pre-incubated with a serially diluted compound at 24° C. for 3 hrs. Purified SOS1 (aa 564-1049) protein, GTPyS (Sigma) and GST-cRaf RBD (aa 1-149) were then added to each well and incubated at 24° C. for additional 3 hrs. […] Following the incubation, Mab Anti-6HIS-T cryptate (Cisbio) and Mab Anti GST-XL665 (Cisbio) were added and further incubated at 24° C. for 3 hrs. The binding interaction between active GTPyS KRAS G12C and GST-cRaf RBD brings the Tb and XL665 into close proximity enabling an increased FRET signal (Ex337 nm, Em665 nm/620 nm). The inhibition percentage of nucleotide exchange reaction in presence of increasing concentrations of compounds was calculated based on the ratio of fluorescence at 665 nm to that at 620 nm detected on a BMG PHERAstar FSX instrument. The IC50 value of each compound was calculated from fitting the data to the four-parameter logistic model by Dotmatics.

Sequence of KRAS (aa 1-169) G12C, C51S, C80L, C118S (P01116 other isoform, or with tags, fused parts or gaps G12C/C51S/C80L/C118S): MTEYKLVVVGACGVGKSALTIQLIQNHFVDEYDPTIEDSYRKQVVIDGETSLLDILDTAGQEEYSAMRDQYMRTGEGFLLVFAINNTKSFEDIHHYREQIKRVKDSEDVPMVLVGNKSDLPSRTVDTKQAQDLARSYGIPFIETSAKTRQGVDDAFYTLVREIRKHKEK

Point of comparison: `C=CC(=O)N1CCN(c2ncnc3cc(-c4cc(F)cc5[nH]ncc45)c4c(c23)OCCC4)C[C@@H]1CC#N` [Compound A16, (S)-2-(1-acryloyl-4-(5-(6-fluoro-1H-indazol-4-yl)-3,4-dihydro-2H-pyrano[2,3-f]quinazolin-10-yl)piperazin-2-yl)acetonitrile], IC50 89.8 nM. Against it:
- C=C(F)C(=O)N1CCN(c2nc(OC[C@@H]3CCCN3C)nc3cc(-c4ccccc4F)c4ccoc4c23)CC1 [Compound B44, (S)-2-fluoro-1-(4-(4-(2-fluorophenyl)-7-((1-methylpyrrolidin-2-yl)methoxy)furo[2,3-f]quinazolin-9-yl)piperazin-1-yl)prop-2-en-1-one] — 71-fold higher, 6350 nM
- C=C(F)C(=O)N1CCN(c2nc(N3CC(N(C)C)C3)nc3cc(-c4c(Cl)c(C)cc5[nH]ncc45)c4ccoc4c23)C[C@@H]1CC#N [Compound B79, 2-((2S)-4-(4-(5-chloro-6-methyl-1H-indazol-4-yl)-7-(3-(dimethylamino)azetidin-1-yl)furo[2,3-f]quinazolin-9-yl)-1-(2-fluoroacryloyl)piperazin-2-yl)acetonitrile] — 1.5-fold lower, 59 nM
- C=CC(=O)N1CCN(c2nc(OC[C@@H]3C[C@@H](F)CN3C)nc3cc(N4CCCc5ccccc54)c4c(c23)OCCC4)CC1 [Compound B27, 1-(4-(5-(3,4-dihydroquinolin-1(2H)-yl)-8-(((2S,4R)-4-fluoro-1-methylpyrrolidin-2-yl)methoxy)-3,4-dihydro-2H-pyrano[2,3-f]quinazolin-10-yl)piperazin-1-yl)prop-2-en-1-one] — 3.6-fold higher, 321 nM
- C=CC(=O)N1CCN(c2nc(N3CC(CN(C)C)C3)nc3cc(-c4cccc5cccc(Cl)c45)c4c(c23)OCCC4)CC1 [Compound B26, 1-(4-(5-(8-chloronaphthalen-1-yl)-8-(3-((dimethylamino)methyl)azetidin-1-yl)-3,4-dihydro-2H-pyrano[2,3-f]quinazolin-10-yl)piperazin-1-yl)prop-2-en-1-one] — 2.7-fold higher, 239 nM
- C=C(F)C(=O)N1CCN(c2nc(N3CC(CF)(N(C)C)C3)nc3cc(-c4cccc5cccc(Cl)c45)c4c(c23)OCCC4)C[C@@H]1CC#N [Compound B88, (S)-2-(4-(5-(8-chloronaphthalen-1-yl)-8-(3-(dimethylamino)-3-(fluoromethyl)azetidin-1-yl)-3,4-dihydro-2H-pyrano[2,3-f]quinazolin-10-yl)-1-(2-fluoroacryloyl)piperazin-2-yl)acetonitrile] — within 1.5-fold, 92 nM
- C=C(F)C(=O)N1CCN(c2nc(OCC3C[C@@H](OC)CN3C)nc3cc(-c4cccc5cccc(Cl)c45)c4c(c23)OCCC4)C[C@@H]1CC#N (mixture of isomers) [Compound B93, 2-((2S)-4-(5-(8-chloronaphthalen-1-yl)-8-(((4R)-4-methoxy-1-methylpyrrolidin-2-yl)methoxy)-3,4-dihydro-2H-pyrano[2,3-f]quinazolin-10-yl)-1-(2-fluoroacryloyl)piperazin-2-yl)acetonitrile] — 8.2-fold lower, 11 nM
- C=C(F)C(=O)N1CCN(c2nc(OC[C@@H]3CCCN3C)nc3cc(-c4cccc5c4CCC5)c4c(c23)OCCC4)C[C@@H]1CC#N [Compound B78, 2-((S)-4-(5-(2,3-dihydro-1H-inden-4-yl)-8-(((S)-1-methylpyrrolidin-2-yl)methoxy)-3,4-dihydro-2H-pyrano[2,3-f]quinazolin-10-yl)-1-(2-fluoroacryloyl)piperazin-2-yl)acetonitrile] — 7.5-fold lower, 12 nM
- C=C(F)C(=O)N1CCN(c2nc(OC[C@@H]3CCCN3C)nc3cc(-c4c(Cl)c(C)cc5[nH]ncc45)c4ccoc4c23)C[C@@H]1CC#N [Compound B35, 2-((2S)-4-(4-(5-chloro-6-methyl-1H-indazol-4-yl)-7-(((S)-1-methylpyrrolidin-2-yl)methoxy)furo[2,3-f]quinazolin-9-yl)-1-(2-fluoroacryloyl)piperazin-2-yl)acetonitrile] — 11-fold lower, 8.4 nM
- C=CC(=O)N1CCN(c2ncnc3cc(-c4cccc5ccccc45)c4c(c23)OC(C)(C)CC4)CC1 [Compound A1, 1-(4-(2,2-dimethyl-5-(naphthalen-1-yl)-3,4-dihydro-2H-pyrano[2,3-f]quinazolin-10-yl)piperazin-1-yl)prop-2-en-1-one] — 61-fold higher, 5500 nM
- C=C(F)C(=O)N1CCN(c2nc(N3CC(N(C)C)C3)nc3cc(-c4c(O)cccc4F)c4c(c23)OCCC4)C[C@@H]1CC#N [Compound B8, 2-((2S)-4-(8-(3-(dimethylamino)azetidin-1-yl)-5-(2-fluoro-6-hydroxyphenyl)-3,4-dihydro-2H-pyrano[2,3-f]quinazolin-10-yl)-1-(2-fluoroacryloyl)piperazin-2-yl)acetonitrile] — 2.8-fold higher, 255 nM
- C=C(F)C(=O)N1CCN(c2nc(OC[C@@H]3CCCN3C)nc3cc(-c4c(O)cccc4F)c4ccoc4c23)C[C@@H]1CC#N [Compound B39, 2-((2S)-4-(4-(2-fluoro-6-hydroxyphenyl)-7-(((S)-1-methylpyrrolidin-2-yl)methoxy)furo[2,3-f]quinazolin-9-yl)-1-(2-fluoroacryloyl)piperazin-2-yl)acetonitrile] — 12-fold higher, 1040 nM
- C=C(F)C(=O)N1CCN(c2nc(OC[C@@H]3C[C@H](F)CN3C)nc3cc(-c4cccc5cccc(Cl)c45)c4c(c23)OCCC4)C[C@@H]1CC#N [Compound B54, 2-((S)-4-(5-(8-chloronaphthalen-1-yl)-8-(((2S,4S)-4-fluoro-1-methylpyrrolidin-2-yl)methoxy)-3,4-dihydro-2H-pyrano[2,3-f]quinazolin-10-yl)-1-(2-fluoroacryloyl)piperazin-2-yl)acetonitrile] — 2.2-fold lower, 40 nM
- C=CC(=O)N1CCN(c2nc(OC3CCCC3N(C)C)nc3cc(-c4cccc5cccc(Cl)c45)c4c(c23)OCCC4)C[C@@H]1CC#N (stereo partly drawn) [Compound B48, 2-((2S)-1-acryloyl-4-(5-(8-chloronaphthalen-1-yl)-8-((2-(dimethylamino)cyclopentyl)oxy)-3,4-dihydro-2H-pyrano[2,3-f]quinazolin-10-yl)piperazin-2-yl)acetonitrile] — 6.4-fold lower, 14 nM
- C=C(F)C(=O)N1CCN(c2nc(OC[C@@H]3C[C@@H](F)CN3C)nc3cc(-c4cccc5cccc(Cl)c45)c4c(c23)OCCC4)C[C@@H]1CC#N [Compound B53, 2-((S)-4-(5-(8-chloronaphthalen-1-yl)-8-(((2S,4R)-4-fluoro-1-methylpyrrolidin-2-yl)methoxy)-3,4-dihydro-2H-pyrano[2,3-f]quinazolin-10-yl)-1-(2-fluoroacryloyl)piperazin-2-yl)acetonitrile] — 3.2-fold lower, 28 nM
- C=C(F)C(=O)N1CCN(c2nc(OC(C)CN(C)C)nc3cc(-c4cccc5cccc(Cl)c45)c4c(c23)OCCC4)C[C@@H]1CC#N (stereo partly drawn) [Compound B85, 2-((2S)-4-(5-(8-chloronaphthalen-1-yl)-8-((1-(dimethylamino)propan-2-yl)oxy)-3,4-dihydro-2H-pyrano[2,3-f]quinazolin-10-yl)-1-(2-fluoroacryloyl)piperazin-2-yl)acetonitrile] — within 1.5-fold, 89 nM
- C=CC(=O)N1CCN(c2ncnc3cc(-c4c(C)ccc5[nH]ncc45)c4c(c23)OCCC4)CC1 [Compound A13, 1-(4-(5-(5-methyl-1H-indazol-4-yl)-3,4-dihydro-2H-pyrano[2,3-f]quinazolin-10-yl)piperazin-1-yl)prop-2-en-1-one] — 37-fold higher, 3310 nM
- C=C(F)C(=O)N1CCN(c2nc(OC[C@@H]3CCCN3C)nc3cc(-c4cccc(C(F)(F)F)c4)c4ccoc4c23)C[C@@H]1CC#N [Compound B87, 2-((S)-1-(2-fluoroacryloyl)-4-(7-(((S)-1-methylpyrrolidin-2-yl)methoxy)-4-(3-(trifluoromethyl)phenyl)furo[2,3-f]quinazolin-9-yl)piperazin-2-yl)acetonitrile] — 17-fold higher, 1520 nM
- C=C(F)C(=O)N1CCN(c2nc(N3CC(N(C)C)C3)nc3cc(-c4cccc5cccc(Cl)c45)c4c(c23)OCCC4)C[C@@H]1CC#N (single isomer, unassigned) [Compound B101] — 14-fold lower, 6.53 nM
- C=C(F)C(=O)N1CCN(c2nc(OC[C@@H]3C[C@@H](OC)CN3C)nc3cc(-c4cccc5cccc(Cl)c45)c4ccoc4c23)C[C@@H]1CC#N [Compound B20, 2-((S)-4-(4-(8-chloronaphthalen-1-yl)-7-(((2S,4R)-4-methoxy-1-methylpyrrolidin-2-yl)methoxy)furo[2,3-f]quinazolin-9-yl)-1-(2-fluoroacryloyl)piperazin-2-yl)acetonitrile] — 5.6-fold lower, 16 nM
- C=C(F)C(=O)N1CCN(c2nc(OC[C@H]3C[C@@H](OC)CN3C)nc3cc(-c4cccc5cccc(Cl)c45)c4c(c23)OCCC4)C[C@@H]1CC#N (single isomer, unassigned) [Compound B107] — 28-fold lower, 3.26 nM
- C=CC(=O)N1CCN(c2ncnc3cc(-c4cccc5ccccc45)c4c(c23)OCCC4)CC1 [Compound A12, 1-(4-(5-(naphthalen-1-yl)-3,4-dihydro-2H-pyrano[2,3-f]quinazolin-10-yl)piperazin-1-yl)prop-2-en-1-one] — 18-fold higher, 1660 nM
- C=CC(=O)N1CCN(c2nc(N3CC(N(C)C)C3)nc3cc(-c4ccccc4C(F)(F)F)c4c(c23)OCCC4)CC1 [Compound B22, 1-(4-(8-(3-(dimethylamino)azetidin-1-yl)-5-(2-(trifluoromethyl)phenyl)-3,4-dihydro-2H-pyrano[2,3-f]quinazolin-10-yl)piperazin-1-yl)prop-2-en-1-one] — 6.3-fold higher, 568 nM
